Measurements published in patent US20190010236A1, “METHODS AND COMPOSITIONS FOR DECTIN-2 STIMULATION AND CANCER IMMUNOTHERAPY” (The Board of Trustees of the Leland Stanford Junior …, priority 2015, published 2019).

Legend:
human monocytes = experiment: Flow cytometric analysis of Dectin-2 expression after GM-CSF culture; assay type: cell-based; settings: 24 hr, GM-CSF 50 ng/mL
Experimental: (§1) FIG. 4A-4D. GM-CSF induces Dectin-2 expression and sensitizes tumors to Dectin-2 stimuli. (FIG. 4A-4C) Murine (FIG. 4A, FIG. 4B) and human (FIG. 4C) monocytes were cultured for 24 hr in media supplemented or not with GM-CSF (50 ng/mL) prior to flow cytometric analysis of Dectin-2 expression (FIG. 4A, FIG. 4C) or stimulation with furfurman and analysis of TNFα production (FIG. 4B). […] (FIG. 4D) Mice bearing s.c. CT26 tumors were treated with mannan (i.v.) and/or GM-CSF (i.t.) starting on day 6 post-tumor implantation.
as §1, with “(FIG.” for “FIG. 4A-4D. GM-CSF induces Dectin-2 expression and sensitizes tumors to Dectin-2 stimuli. (FIG.”, “GM-CSF production.” for “TNFα production (FIG. 4B).”

murine monocytes = experiment: as above; assay type: cell-based; settings: 24 hr, GM-CSF 50 ng/mL
Experimental: as §1
as §1, with “(FIG.” for “FIG. 4A-4D. GM-CSF induces Dectin-2 expression and sensitizes tumors to Dectin-2 stimuli. (FIG.”, “GM-CSF production.” for “TNFα production (FIG. 4B).”

s.c. CT26 tumors = experiment: Mannan (i.v.) and/or GM-CSF (i.t.) in s.c. CT26 tumors; assay type: in vivo, mice; settings: GM-CSF i.t. with mannan i.v.
Experimental: as §1
as §1, with “(FIG.” for “FIG. 4A-4D. GM-CSF induces Dectin-2 expression and sensitizes tumors to Dectin-2 stimuli. (FIG.”, “GM-CSF production.” for “TNFα production (FIG. 4B).”

[1] = tested on: tumor-associated myeloid cells (TAM cells); experiment: Coculture of kifunensine-pretreated PDAC cells with TAM (cytokine production, tumor cell uptake); assay type: cell-based; settings: kifunensine-pretreated PDAC cells cocultured overnight with TAM; Dectin-2-dependent
Experimental: (§2) FIG. 5A-5D. Mannosidase inhibition with kifunensine induces high-mannose glycan display and increases tumor cell immunogenicity. (FIG. 5A-5C) PDAC cells were treated with kifunensine for 3 days prior to flow cytometric analysis (FIG. 5A) or coculture with TAM (FIG. 5B, FIG. 5C). (FIG. 5A) PDAC cells stained with the mannose-binding lectin, concavalin A. (FIG. 5B, FIG. 5C) Pretreated PDAC cells were labeled with CSFE and cocultured overnight with TAM to assess cytokine production (FIG. 5B) and tumor cell uptake (FIG. 5C) by Dectin-2-expressing TAM. In some experiments, TAM were treated with Dectin-2-blocking antibodies prior to coculture with PDAC cells (FIG. 5C). *, p<0.05 by Student's t-test. (FIG. 5D) Subcutaneous PDAC tumors from kifunensine-treated mice (i.p., q2d for 7 days) were analyzed by flow cytometry. CD8 T cells (CD8^+CD90^+) among total tumor-infiltrating immune cells are gated.

PDAC cells = experiment: High-mannose glycan display on kifunensine-treated tumor cells (concavalin A staining); assay type: cell-based; settings: tumor cells treated with kifunensine for 3 days
Experimental: as §2

subcutaneous PDAC tumors = experiment: Kifunensine treatment of mice with subcutaneous PDAC tumors; assay type: in vivo; settings: kifunensine i.p., q2d for 7 days
Experimental: as §2

Compound: GM-CSF: cytokine that induces Dectin-2 expression by myeloid cells
- Dectin-2 expression (human monocytes): induced Dectin-2 expression
- Dectin-2 expression (murine monocytes): induced Dectin-2 expression
- sensitization of tumors to Dectin-2 stimuli (tumor volume) (s.c. CT26 tumors): sensitized tumors to Dectin-2 stimuli

Compound: O=C1N[C@@H]2[C@@H](O)[C@@H](O)[C@H](O)[C@@H](CO)N2C1=O [kifunensine]
- TAM activation by treated tumor cells (cytokine production, tumor cell uptake) [1]: inducing proinflammatory cytokine production and tumor cell uptake
- high-mannose glycans on the cell surface (PDAC cells): sharp increase
- T cell infiltration into tumors (subcutaneous PDAC tumors): led to T cell infiltration into tumors
- high-mannose glycan display by tumor cells in vivo (subcutaneous PDAC tumors): increased high-mannose glycan display by tumor cells
